We go through one substance from patent US20220390449A1, “NEW S[…] FOR THE LATENT FORM OF TOXOPLASMOSIS” (INSERM (INSTITUT NATIONAL DE LA SANTÉ ET DE LA RECHERCHE …, priority 2019, published 2022).

For assay [1], the system named is T. gondii-infected HFF cells. In words: FR235222 treatment and induction of BCLA (proteomics, western blot, immunofluorescence). In kind it is cell-based, Toxoplasma gondii. As for the experimental part:
Host cells and parasites culture. HFF primary cells (Bougdour et al., 2009), RAW264.7, L929, HCT116, A549 and HEK293 cells were cultured in Dulbecco's Modified eagle Medium (DMEM) (Thermo fischer Scientific, France) supplemented with 10% heat-inactivated fetal Bovine Serum (FBS) (Invitrogen), 10 mM (4-(2-hydroxyethyl)-1-piperazine ethanesulphonic acid) (HEPES) buffer pH 7.2, 2 mM L-glutamine and 50 μg/ml of penicillin and streptomycin (Thermo Fisher Scientific). Cells were incubated at 37° C. in 5% CO2. The following Toxoplasma strains were used in this study: type I (RH, GT1), type II (ME49), type III (CTG), atypical (COUG), Neospora caninum; RHΔku80 (Huynh and Carruthers, 2009), PruΔku80 (Fox et al., 2011), PruA7 (Saeij et al., 2007), COUGΔmyr1 (Hakimi, unpublished), PruΔku80Δbcla, PruΔku80-HF-BCLA and 76k-GFP-luc-Δbcla obtained in this study. All parasite strains were maintained in vitro by serial passage on monolayers of HFFs. T. gondii transfection. T. gondii RHΔku80, PruΔku80 and 76k-GFP-luc were electroporated with vectors in cytomix buffer (120 mM KCl, 0.15 mM CaCl2, 10 mM K2HPO4/KH2PO4, pH 7.6, 25 mM HEPES pH 7.6, 2 mM EGTA, 5 mM MgCl2) using a BTX ECM 630 machine (Harvard Apparatus). Electroporation was performed in a 2 mm cuvette at 1.100 V, 25Ω and 25 μF. Stable transgenic parasites were selected with 1 μM pyrimethamine, single-cloned in 96 well plates by limiting dilution and verified by immunofluorescence assay.
FR235222 treatment and induction. FR235222 was provided by Astellas Pharma Inc. (Osaka, Japan) and dissolved into DMSO as described by Bougdour et al., 2009 and the final concentration in culture medium was either 25 ng/mL or 50 ng/mL. The media containing FR235222 was added to infected HFF cells 16 hours after infection for 24 h to 7 days.
Immunofluorescence microscopy. Immunofluorescence assays on in vitro parasites were performed as described previously (Braun et al., 2013). In brief, T. gondii-infected HFF cells grown on coverslips or cysts purified from brains of mice were fixed in 3% formaldehyde for 20 min at room temperature, permeabilised with 0.1% (v/v) Triton X-100 for 15 min and blocked in phosphate-buffered saline (PBS) containing 3% (v/v) bovine serum albumin (BSA). For immunolabeling on histological sections of brains, the brain layers spotted on glass slides were first solvent-dewaxed using toluene for 3*10 min and absolute alcohol for 3*10 min. The slides were then treated with citrate buffer pH 6, heated at 100° C. during 1 hour, rinsed with water for 2*10 min and blocked in PBS containing 3% (v/v) bovine serum albumin (BSA). The cells or brain layers were then incubated for 1 hour with the primary antibodies indicated in the figures followed by the addition of secondary antibodies conjugated to Alexa Fluor 488 or 594 (Molecular Probes) at a 1:1,000 dilution for 1 hour. Nuclei of both host cells and parasites were stained for 10 min at room temperature with Hoechst 33258 at 2 μg/ml in PBS. Coverslips were mounted on a glass slide with Mowiol mounting medium, images were acquired with a fluorescence ZEISS ApoTome.2 microscope and images were processed by ZEN software (Zeiss).
Western Blot. Proteins were separated by SDS-PAGE and transferred to a polyvinylidene fluoride membrane (Immobilon-P; EMP Millipore) by liquid transfer, and Western blots were probed using appropriate primary antibodies followed by phosphatase-conjugated goat secondary antibodies (Promega). Signals were detected using NBT-BCIP (Amresco).
For orientation: In western blotting, separated proteins are transferred to a membrane and probed.

The subject of another assay is TgHDAC3. Particulars: low doses, RH strain; cited from earlier work.

Regarding FR235222, the “BCLA protein induction (quantitative proteomics LC-MS/MS)” value in assay [1] (FR235222 90 nM versus DMSO 0.1%, type II (PruΔku80) strain in primary human fibroblasts) is given as “significantly induced”. For the same substance, the “BCLA signal intensity (western blot, ~140-kDa band)” value in assay [1] (FR235222 versus untreated tachyzoites) is “significantly increased”. The “BCLA signal intensity upon FR235222 (immunofluorescence, per PV)” value in assay [1] (type I (GT1 and RHΔku80) and haplogroup 11 (COUG) strains) is recorded as “rather moderate”; in assay [1] (type II (PruΔku80, ME49, 76K-GFP-Luc) strain), “very strong induction”; in assay [1] (type III (CTG) strain), “faint (if no) signal”. The “in vitro tachyzoite to bradyzoite stage conversion” value in the assay on TgHDAC3 is on record as “induces”.
